Patent publication US20250353891A1 (MEDIMMUNE LIMITED, priority 2022, published 2025)
Starred links: 1 amine or outer side, 2 acyl side, 3 side chain; linkers in the order of their positions; H or OH if unused. Non-standard residues stand in square brackets, D forms with d. Residues, ends and D or L forms follow the SMILES beside them. Groups on a side chain read outwards from the residue. *: point of attachment. C20 diacid = O=C(O)CCCCCCCCCCCCCCCCCCC(=O)*; C18 diacid = O=C(O)CCCCCCCCCCCCCCCCC(=O)*; γGlu = O=C(O)[C@H](CCC(=O)[*:2])N[*:1]; αMeF = C[C@](N)(Cc1ccccc1)C(=O)O; AEEA = NCCOCCOCC(=O)O; Aib = CC(C)(N)C(=O)O

Experiments:
[1] = target: human glucagon receptor (hGCGR) (Homo sapiens, UniProt P47871); assay: cAMP production (HTRF) in CHO cells expressing hGCGR; type: cell-based; set-up: expressed in transfected cells; details: Table 6, peptides modified at position 17; cAMP in CHO hGCGR cells; geometric mean; read-out: hGluc-R EC50
Sequence of human glucagon receptor (hGCGR) (P47871 26-477): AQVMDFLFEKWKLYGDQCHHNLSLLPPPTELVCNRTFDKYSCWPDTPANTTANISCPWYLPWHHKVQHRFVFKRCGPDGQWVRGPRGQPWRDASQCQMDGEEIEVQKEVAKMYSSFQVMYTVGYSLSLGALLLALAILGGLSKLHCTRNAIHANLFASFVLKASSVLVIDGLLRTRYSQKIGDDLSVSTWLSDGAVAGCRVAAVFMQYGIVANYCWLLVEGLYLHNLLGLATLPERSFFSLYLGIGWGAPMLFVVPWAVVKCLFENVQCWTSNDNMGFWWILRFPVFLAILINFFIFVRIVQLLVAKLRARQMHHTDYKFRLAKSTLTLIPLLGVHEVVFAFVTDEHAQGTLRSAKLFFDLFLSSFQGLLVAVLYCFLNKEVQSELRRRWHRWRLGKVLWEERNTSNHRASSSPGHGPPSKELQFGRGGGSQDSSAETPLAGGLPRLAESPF
Outline: (§1)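 Read-out: HTRF cAMP (anti-cAMP cryptate donor, cAMP-d2 acceptor in conjugate/lysis buffer), converted to % Delta F and fitted by 4-parameter logistic for EC50. Cell densities were 1×10^5 cells/mL (hGLP-1R) or 2×10^5 cells/mL (hGCGR). Stimulation lasted 30 min at room temperature.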

[2] = target: human GLP-1 receptor (hGLP-1R) (Homo sapiens, UniProt P43220); assay: cAMP production (HTRF) in CHO cells expressing hGLP-1R; type: cell-based; set-up: expressed in transfected cells; details: for EC50: Table 6, peptides modified at position 17, cAMP in CHO hGLP-1R cells, geometric mean, read-out: hGLP-1R EC50; for % Relative Potency Ratio: Table 6, % GLP-1R activity relative to GLP-1 / % GlucR activity relative to glucagon
Sequence of human GLP-1 receptor (hGLP-1R) (P43220 24-463): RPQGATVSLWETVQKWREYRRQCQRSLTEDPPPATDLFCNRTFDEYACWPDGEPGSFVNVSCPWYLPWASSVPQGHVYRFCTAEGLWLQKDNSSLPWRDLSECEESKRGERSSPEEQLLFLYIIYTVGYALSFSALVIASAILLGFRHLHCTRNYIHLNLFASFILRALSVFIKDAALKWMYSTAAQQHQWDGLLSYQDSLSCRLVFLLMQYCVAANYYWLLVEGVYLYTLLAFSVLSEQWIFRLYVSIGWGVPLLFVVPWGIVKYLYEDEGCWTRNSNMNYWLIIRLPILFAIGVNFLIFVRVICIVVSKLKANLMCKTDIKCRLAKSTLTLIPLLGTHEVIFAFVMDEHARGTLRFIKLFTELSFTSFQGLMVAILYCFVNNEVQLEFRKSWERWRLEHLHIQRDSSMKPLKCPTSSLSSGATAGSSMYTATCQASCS
Outline: as §1

EC50 [1] [nM] | EC50 [2] [nM] | % Relative Potency Ratio [2] | Compound
0.301 | 0.202 | 2.9 | CC(C)C[C@H](NC(=O)[C@H](Cc1c[nH]c2ccccc12)NC(=O)[C@H](CCC(N)=O)NC(=O)[C@@H](NC(=O)[C@H](Cc1ccccc1)NC(=O)[C@H](CC(=O)O)NC(=O)[C@H](CCCNC(=N)N)NC(=O)[C@H](C)NC(=O)[C@H](CCCNC(=N)N)NC(=O)[C@H](CCCCNC(=O)COCCOCCNC(=O)COCCOCCNC(=O)CC[C@H](NC(=O)CCCCCCCCCCCCCCCCCCC(=O)O)C(=O)O)NC(=O)[C@@H](NC(=O)[C@H](CC(=O)O)NC(=O)[C@H](CC(C)C)NC(=O)[C@](C)(Cc1ccccc1)NC(=O)[C@H](CCCCN)NC(=O)[C@H](CO)NC(=O)[C@@H](NC(=O)[C@H](CC(=O)O)NC(=O)[C@H](CO)NC(=O)[C@@H](NC(=O)[C@H](Cc1ccccc1)NC(=O)[C@@H](NC(=O)CNC(=O)[C@H](CCC(N)=O)NC(=O)C(C)(C)NC(=O)[C@@H](N)Cc1c[nH]cn1)[C@@H](C)O)[C@@H](C)O)C(C)C)[C@@H](C)O)C(C)C)C(=O)N[C@@H](CC(C)C)C(=O)NC(C)(C)C(=O)N[C@H](C(=O)N[C@@H](CCC(=O)O)C(=O)O)[C@@H](C)O [Peptide 488] (H-H[Aib]QGTFTSDVSK[αMeF]LDTK([AEEA-AEEA-γGlu-C20 diacid])RARDFVQWLL[Aib]TE-OH; N-terminus assumed)
0.232 | 0.0736 | 6.2 | CC(C)C[C@H](NC(=O)[C@H](Cc1c[nH]c2ccccc12)NC(=O)[C@H](CCCNC(=N)N)NC(=O)[C@@H](NC(=O)[C@H](Cc1ccccc1)NC(=O)[C@H](CC(=O)O)NC(=O)[C@H](CCCNC(=N)N)NC(=O)[C@H](C)NC(=O)[C@H](CCCNC(=N)N)NC(=O)[C@H](CCCCNC(=O)COCCOCCNC(=O)COCCOCCNC(=O)CC[C@H](NC(=O)CCCCCCCCCCCCCCCCC(=O)O)C(=O)O)NC(=O)[C@@H](NC(=O)[C@H](CC(=O)O)NC(=O)[C@H](CC(C)C)NC(=O)[C@](C)(Cc1ccccc1)NC(=O)[C@H](CCCCN)NC(=O)[C@H](CO)NC(=O)[C@@H](NC(=O)[C@H](CC(=O)O)NC(=O)[C@H](CO)NC(=O)[C@@H](NC(=O)[C@H](Cc1ccccc1)NC(=O)[C@@H](NC(=O)CNC(=O)[C@H](CCC(N)=O)NC(=O)C(C)(C)NC(=O)[C@@H](N)Cc1c[nH]cn1)[C@@H](C)O)[C@@H](C)O)C(C)C)[C@@H](C)O)C(C)C)C(=O)N[C@@H](CC(C)C)C(=O)NC(C)(C)C(=O)N[C@H](C(=O)N[C@@H](CCC(=O)O)C(=O)O)[C@@H](C)O [Peptide 491] (H-H[Aib]QGTFTSDVSK[αMeF]LDTK([AEEA-AEEA-γGlu-C18 diacid])RARDFVRWLL[Aib]TE-OH; N-terminus assumed)
0.374 | 0.212 | 3.5 | CC(C)C[C@H](NC(=O)[C@H](Cc1c[nH]c2ccccc12)NC(=O)[C@H](CCCNC(=N)N)NC(=O)[C@@H](NC(=O)[C@H](Cc1ccccc1)NC(=O)[C@H](CC(=O)O)NC(=O)[C@H](CCCNC(=N)N)NC(=O)[C@H](C)NC(=O)[C@H](CCCNC(=N)N)NC(=O)[C@H](CCCCNC(=O)COCCOCCNC(=O)COCCOCCNC(=O)CC[C@H](NC(=O)CCCCCCCCCCCCCCCCCCC(=O)O)C(=O)O)NC(=O)[C@@H](NC(=O)[C@H](CC(=O)O)NC(=O)[C@H](CC(C)C)NC(=O)[C@](C)(Cc1ccccc1)NC(=O)[C@H](CCCCN)NC(=O)[C@H](CO)NC(=O)[C@@H](NC(=O)[C@H](CC(=O)O)NC(=O)[C@H](CO)NC(=O)[C@@H](NC(=O)[C@H](Cc1ccccc1)NC(=O)[C@@H](NC(=O)CNC(=O)[C@H](CCC(N)=O)NC(=O)C(C)(C)NC(=O)[C@@H](N)Cc1c[nH]cn1)[C@@H](C)O)[C@@H](C)O)C(C)C)[C@@H](C)O)C(C)C)C(=O)N[C@@H](CC(C)C)C(=O)NC(C)(C)C(=O)N[C@H](C(=O)N[C@@H](CCC(=O)O)C(=O)O)[C@@H](C)O [Peptide 492] (H-H[Aib]QGTFTSDVSK[αMeF]LDTK([AEEA-AEEA-γGlu-C20 diacid])RARDFVRWLL[Aib]TE-OH; N-terminus assumed)

Further lines, the compound ahead of its results:

Compound | EC50 [1] [nM] | EC50 [2] [nM] | % Relative Potency Ratio [2]
CC(C)C[C@H](NC(=O)[C@H](Cc1c[nH]c2ccccc12)NC(=O)[C@H](CCC(N)=O)NC(=O)[C@@H](NC(=O)[C@H](Cc1ccccc1)NC(=O)[C@H](CC(=O)O)NC(=O)[C@H](CCCNC(=N)N)NC(=O)[C@H](C)NC(=O)[C@H](CCCNC(=N)N)NC(=O)[C@H](CCCCNC(=O)COCCOCCNC(=O)COCCOCCNC(=O)CC[C@H](NC(=O)CCCCCCCCCCCCCCCCC(=O)O)C(=O)O)NC(=O)[C@@H](NC(=O)[C@H](CC(=O)O)NC(=O)[C@H](CC(C)C)NC(=O)[C@](C)(Cc1ccccc1)NC(=O)[C@H](CCCCN)NC(=O)[C@H](CO)NC(=O)[C@@H](NC(=O)[C@H](CC(=O)O)NC(=O)[C@H](CO)NC(=O)[C@@H](NC(=O)[C@H](Cc1ccccc1)NC(=O)[C@@H](NC(=O)CNC(=O)[C@H](CCC(N)=O)NC(=O)C(C)(C)NC(=O)[C@@H](N)Cc1c[nH]cn1)[C@@H](C)O)[C@@H](C)O)C(C)C)[C@@H](C)O)C(C)C)C(=O)N[C@@H](CC(C)C)C(=O)NC(C)(C)C(=O)N[C@H](C(=O)N[C@@H](CCC(=O)O)C(=O)O)[C@@H](C)O [Peptide 487] (H-H[Aib]QGTFTSDVSK[αMeF]LDTK([AEEA-AEEA-γGlu-C18 diacid])RARDFVQWLL[Aib]TE-OH) | 0.164 | 0.0655 | 5.0
CC(C)C[C@H](NC(=O)[C@H](Cc1c[nH]c2ccccc12)NC(=O)[C@H](CCC(N)=O)NC(=O)[C@@H](NC(=O)[C@H](Cc1ccccc1)NC(=O)[C@H](CC(=O)O)NC(=O)[C@H](CCCNC(=N)N)NC(=O)[C@H](C)NC(=O)[C@H](CCCNC(=N)N)NC(=O)[C@H](CCCCNC(=O)COCCOCCNC(=O)COCCOCCNC(=O)CC[C@H](NC(=O)CCCCCCCCCCCCCCCCC(=O)O)C(=O)O)NC(=O)[C@@H](NC(=O)[C@H](CC(=O)O)NC(=O)[C@H](CC(C)C)NC(=O)[C@](C)(Cc1ccccc1)NC(=O)[C@H](CCCCN)NC(=O)[C@H](CO)NC(=O)[C@@H](NC(=O)[C@H](CC(=O)O)NC(=O)[C@H](CO)NC(=O)[C@@H](NC(=O)[C@H](Cc1ccccc1)NC(=O)[C@@H](NC(=O)CNC(=O)[C@H](CCC(N)=O)NC(=O)C(C)(C)NC(=O)[C@@H](N)Cc1c[nH]cn1)[C@@H](C)O)[C@@H](C)O)C(C)C)[C@@H](C)O)C(C)C)C(=O)N[C@@H](CC(C)C)C(=O)NC(C)(C)C(=O)N[C@H](C(=O)N[C@@H](CCC(=O)O)C(N)=O)[C@@H](C)O [Peptide 489] (H-H[Aib]QGTFTSDVSK[αMeF]LDTK([AEEA-AEEA-γGlu-C18 diacid])RARDFVQWLL[Aib]TE-NH2; N-terminus assumed) | 0.168 | 0.0228 | 14.5
CC(C)C[C@H](NC(=O)[C@H](Cc1c[nH]c2ccccc12)NC(=O)[C@H](CCC(N)=O)NC(=O)[C@@H](NC(=O)[C@H](Cc1ccccc1)NC(=O)[C@H](CC(=O)O)NC(=O)[C@H](CCCNC(=N)N)NC(=O)[C@H](C)NC(=O)[C@H](CCCNC(=N)N)NC(=O)[C@H](CCCCNC(=O)COCCOCCNC(=O)COCCOCCNC(=O)CC[C@H](NC(=O)CCCCCCCCCCCCCCCCCCC(=O)O)C(=O)O)NC(=O)[C@@H](NC(=O)[C@H](CC(=O)O)NC(=O)[C@H](CC(C)C)NC(=O)[C@](C)(Cc1ccccc1)NC(=O)[C@H](CCCCN)NC(=O)[C@H](CO)NC(=O)[C@@H](NC(=O)[C@H](CC(=O)O)NC(=O)[C@H](CO)NC(=O)[C@@H](NC(=O)[C@H](Cc1ccccc1)NC(=O)[C@@H](NC(=O)CNC(=O)[C@H](CCC(N)=O)NC(=O)C(C)(C)NC(=O)[C@@H](N)Cc1c[nH]cn1)[C@@H](C)O)[C@@H](C)O)C(C)C)[C@@H](C)O)C(C)C)C(=O)N[C@@H](CC(C)C)C(=O)NC(C)(C)C(=O)N[C@H](C(=O)N[C@@H](CCC(=O)O)C(N)=O)[C@@H](C)O [Peptide 490] (H-H[Aib]QGTFTSDVSK[αMeF]LDTK([AEEA-AEEA-γGlu-C20 diacid])RARDFVQWLL[Aib]TE-NH2; N-terminus assumed) | 0.396 | 0.069 | 11.4
CC(C)C[C@H](NC(=O)[C@H](Cc1c[nH]c2ccccc12)NC(=O)[C@H](CCCNC(=N)N)NC(=O)[C@@H](NC(=O)[C@H](Cc1ccccc1)NC(=O)[C@H](CC(=O)O)NC(=O)[C@H](CCC(N)=O)NC(=O)[C@H](C)NC(=O)[C@H](CCCNC(=N)N)NC(=O)[C@H](CCCCNC(=O)COCCOCCNC(=O)COCCOCCNC(=O)CC[C@H](NC(=O)CCCCCCCCCCCCCCCCC(=O)O)C(=O)O)NC(=O)[C@@H](NC(=O)[C@H](CC(=O)O)NC(=O)[C@H](CC(C)C)NC(=O)[C@](C)(Cc1ccccc1)NC(=O)[C@H](CCCCN)NC(=O)[C@H](CO)NC(=O)[C@@H](NC(=O)[C@H](CC(=O)O)NC(=O)[C@H](CO)NC(=O)[C@@H](NC(=O)[C@H](Cc1ccccc1)NC(=O)[C@@H](NC(=O)CNC(=O)[C@H](CCC(N)=O)NC(=O)C(C)(C)NC(=O)[C@@H](N)Cc1c[nH]cn1)[C@@H](C)O)[C@@H](C)O)C(C)C)[C@@H](C)O)C(C)C)C(=O)N[C@@H](CC(C)C)C(=O)N[C@@H](CCCNC(=N)N)C(=O)NC(C)(C)C(=O)N[C@@H](CCCCN)C(=O)O [Peptide 493] (H-H[Aib]QGTFTSDVSK[αMeF]LDTK([AEEA-AEEA-γGlu-C18 diacid])RAQDFVRWLLR[Aib]K-OH; N-terminus assumed) | 0.166 | 0.0235 | 14.0
